Test results published in US20190117586A1, “METHODS OF PREVENTING OR TREATING PARKINSON'S DISEASE BY THE FARNESYLATION OF PARIS” (The Johns Hopkins University, priority 2016, published 2019).

Columns and labels:
[1] = system: PPARα and PPARγ; assay: PPARα and PPARγ levels and target gene mRNA in farnesol fed mice; assay type: in vivo
[2] = system: PGC-1α; assay: PGC-1α level in brain regions of farnesol-fed mice; assay type: in vivo; conditions: farnesol-fed mice versus normal mouse chow
Method: Farnesol is a natural organic compound in both plants and animals. Phosphate derivatives of farnesol are the building blocks of cholesterol in mammalian cells. […] The level of PGC-1α was measured from different brain regions in farnesol-fed mice. PGC-1α levels increase 2.7-fold in the olfactory bulb (OB), 1.6-fold in hippocampus (HIP), and 1.7-fold in substantia nigra (SN) as compared to that of mice on normal mouse chow (FIGS. 2H and 2I). […] In addition, mRNA levels of PGC-1α and a variety of PGC-1α's target genes in the STR, HIP, and SN of farnesol-fed mice were measured.

[3] = system: PPARα and PPARγ; assay: PPARα and PPARγ levels, target genes and PPAR responsive element in SH-SY5Y cells; assay type: cell-based
[4] = system: PARIS; assay: Subcellular fractionation of PARIS by immunoblot; assay type: cell-based
Method: (§1) To confirm that farnesylation of PARIS requires FTase, siRNA-FTase α knockdown or FTI-277 inhibition of FTase in the setting of PARIS overexpression was performed (FIG. 4C). […] To ascertain whether the farnesylation of PARIS affects the DNA binding activity of PARIS on the IRS motif of the PGC-1α promoter, a chromatin immunoprecipitation assay (ChIP) was performed from SH-SY5Y transfected with GFP-tagged PARIS WT or GFP-tagged PARIS C631S. […] To examine the possibility that the farnesylation of PARIS alters its subcellular distribution, subcellular fractionation was used to monitor the levels of PARIS in cytosolic, membrane, soluble nuclear, and chromatin-bound nuclear fractions by immunoblot analysis (FIG. 4F).

[5] = system: Tg-PARIS mice; assay: Tet inducible conditional PARIS transgenic mice (Tg-PARIS); assay type: in vivo
Description: A C-terminal FLAG tagged human PARIS under the control of a tetracycline responsive regulator (TetP-PARIS-Flag) was used to generate tetracycline responsive transgenic mice (Figure S5A). […] Three of the highest copy number male founder mice were crossed with the CamKIIα-tTA transgenic mice to achieve transgene expression throughout the mouse forebrain (Mayford et al., 1996). […] Thus, dams were maintained on doxycycline to suppress PARIS expression and pups were maintained on doxycycline diet for three weeks after birth. […] Dopamine neuronal number was assessed at 6 weeks of age when the mice were moribund by unbiased stereology counting of TH and Nissl positive neurons.
A second cohort of Tg-PARIS mice were maintained on […] prior to doxycycline withdrawal. Two groups of non-transgenic control (CamKIIα-tTA or TetP-PARIS) mice were subjected to the same dietary regimen.
To generate tet-off conditional PARIS transgenic mice, linearized transgenic constructs (NotI digestion, 8 kbp) were microinjected into the embryos and the embryos were transferred into B6D2F1 pseudo-pregnant female mice (Transgenic Animal Core of National Cancer Institute). The three high copy founders (line #121, 158, 179) were mated with C57/BL6 mice for two to three generations to establish the transgenic lines. PARIS induction in conditional transgenic mice was suppressed by feeding the mice with doxycycline-containing food (doxycycline Diet-Sterile, 200 mg per kg doxycycline, Bio-Serv).

[6] = system: PARIS; assay: PARIS farnesylation in SH-SY5Y cells transfected with Flag-tagged PARIS (immunoprecipitation); assay type: cell-based
Method: Geraniol or geranylgeraniol have no effect on PGC-1α levels (FIG. 3H).
as §1

[7] = system: PGC-1α and NRF-1; assay: shRNA knockdown of PARIS in SH-SY5Y cells; assay type: cell-based
[8] = dietary farnesol in rodents; cited from earlier work
[9] = system: PGC-1α target genes; assay: mRNA of PGC-1α target genes in SH-SY5Y cells by real-time qRT-PCR; assay type: cell-based
Method: The 9 compounds that activate the PGC-1α promoter in the presence of PARIS were evaluated to determine which compounds induce PGC-1α levels in SH-SY5Y cells (FIGS. 2A and 2B). […] The mRNA level of PGC-1α target genes including copper/zinc superoxide dismutase (SOD1), manganese SOD (SOD2), glutathione peroxidase (GPx1), catalase (CAT), nuclear respiratory factor-1 (NRF-1), mitochondrial transcription factor A (TFAM), mitochondrial uncoupling proteins (UCP2 and UCP3), and the oxidative phosphorylation regulators, ATP5b, cytochrome C (CytC) and cytochrome C oxidase (COX II and IV) were determined by real-time quantitative RT-PCR (qRT-PCR) (FIG. 2C).

[10] = system: PGC-1α promoter; assay: PGC-1α promoter activity with PARIS WT or PARIS C631S mutant; assay type: cell-based; conditions: PARIS WT; not observed with PARIS C631S mutant
[11] = molecular target: T1, PPARγ (Homo sapiens, UniProt P37231); conditions: cited from earlier work
T1 sequence (P37231 1-505): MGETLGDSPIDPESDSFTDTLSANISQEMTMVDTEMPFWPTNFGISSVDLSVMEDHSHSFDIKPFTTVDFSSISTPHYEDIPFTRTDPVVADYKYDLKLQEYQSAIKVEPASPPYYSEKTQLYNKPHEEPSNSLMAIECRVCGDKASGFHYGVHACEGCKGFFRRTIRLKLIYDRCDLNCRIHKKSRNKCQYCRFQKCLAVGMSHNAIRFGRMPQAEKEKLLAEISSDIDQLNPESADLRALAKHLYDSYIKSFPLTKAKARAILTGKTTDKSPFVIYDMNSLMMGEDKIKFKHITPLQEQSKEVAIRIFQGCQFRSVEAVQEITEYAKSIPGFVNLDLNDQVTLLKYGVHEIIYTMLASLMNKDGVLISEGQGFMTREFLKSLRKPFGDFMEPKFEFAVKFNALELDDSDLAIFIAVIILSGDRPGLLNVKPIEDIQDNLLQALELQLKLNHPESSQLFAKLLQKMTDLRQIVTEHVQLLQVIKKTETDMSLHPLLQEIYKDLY

[12] = SH-SY5Y, Flag-tagged PARIS, farnesol treatment 48 hours

In the case of `CC(C)=CCC/C(C)=C/CC/C(C)=C/CO` [farnesol, (2E,6E)-3,7,11-trimethyldodeca-2,6,10-trien-1-ol], the “mRNA levels of MCAD” value ([1]; SN of farnesol fed mice) is reported as “increases”, the “mRNA levels of PPARγ and ACOX1” value ([1]; SN of farnesol fed mice) is reported as “decreases” and the “PGC-1α and NRF-1 levels” value ([1]; farnesol fed mice) is reported as “increase”. For the same molecule, the “levels of PPARα and PPARγ” value ([1]; farnesol fed mice) was “no alteration”, the “PGC-1α level increase, hippocampus (HIP)” value [2] was 1.6 fold and the “PGC-1α level increase, olfactory bulb (OB)” value [2] was 2.7 fold. The “PGC-1α level increase, substantia nigra (SN)” value [2] was 1.7 fold, the “PGC-1α levels in cerebellum (CBM), brain stem (BS), striatum (STR), frontal cortex (CTX)” value [2] was “No significant change” and the “activation of a PPAR responsive element” value [3] was “fails to activate”. The “levels of PPARα and PPARγ protein and mRNA and target genes ACOX1, CPT-1A, MCAD, LCAD” value [3] was “fails to influence”, the “distribution of PARIS in cytoplasmic, membrane, and soluble nuclear fractions” value [4] was “no change” and the “level of chromatin-bound PARIS” value ([4]; PARIS WT or C631S) was “abolished the level of chromatin-bound PARIS WT but not PARIS C631S”. For the same molecule, the “dopaminergic neuronal PGC-1α immunoreactivity” value ([5]; Tg-PARIS SN, co-immunostaining) was “increased dopaminergic neuronal PGC-1α immunoreactivity”, the “Pole Test behavior” value ([5]; Tg-PARIS, farnesol diet) was “complete behavioral rescue” and the “farnesylation of PARIS (FLAG immunoprecipitation, farnesyl antibody)” value ([5]; Tg-PARIS, farnesol diet) was “enhanced farnesylation of PARIS”. The “premature lethality due to PARIS overexpression” value ([5]; Tg-PARIS, farnesol diet) was “delays the premature lethality”, the “reduction in PGC-1α and NRF-1 levels” value ([5]; Tg-PARIS, farnesol diet) was “blocked” and the “loss of dopamine neurons in the SN (TH and Nissl stereology)” value ([5]; Tg-PARIS, farnesol diet from 3 days prior to doxycycline withdrawal) was “completely prevents the loss of dopamine neurons”. For the same molecule, the “mRNA level of PGC-1α and NRF-1 in the SN” value ([5]; farnesol-fed versus normal chow-fed mice) was “significantly upregulated”, the “PGC-1α and NRF-1 levels in control mice” value ([5]; non-transgenic control mice, farnesol diet) was “increases PGC-1α and NRF-1 levels” and the “restoration of PGC-1α levels with PARIS C631S mutant” value ([6]; PARIS C631S mutant) was “no effect”. The “farnesylation of FLAG-PARIS C631S mutant” value ([6]; PARIS C631S mutant, in the presence of farnesol) was “no farnesylation”, the “PGC-1α level with PARIS WT” value ([6]; PARIS WT) was “upregulation of PGC-1α” and the “farnesylation of FLAG-PARIS WT” value ([6]; PARIS WT, farnesol treatment) was “farnesylation is increased”. For the same molecule, the PARIS farnesylation [6, 12] was “increases PARIS farnesylation in a dose-dependent manner”, the “PGC-1α accompanying PARIS farnesylation” value [6, 12] was “increase in PGC-1α” and the “PGC-1α and NRF-1 levels after knockdown of PARIS” value [7] was “fails to enhance the levels further”. The cardioprotective effects [8] was “exhibits cardioprotective effects”, the “PGC-1α, SOD1, and ATP5B mRNA levels” value [9] was “increased” and the “mRNA level of NRF-1” value [9] was “robustly increased”. For the same molecule, the PGC-1α promoter activity [10] was “increase of PGC-1α promoter activity” and the “activation of PPARγ in vitro” value [11] was “capable of activating”.
